The values that follow come from patent US7678794B2, “Potentiators of glutamate receptors” (Eli Lilly and Company, priority 2004, dated 2010).

SMILES strings stand for the structures. Bounds are passed on as bounds.

This test concerns the target T1, human CysLT1 receptor (Homo sapiens, UniProt Q9Y271).
T1 construct: expressed in transfected cells; host or cells: AV12-664 (ATCC-9595)
T1 sequence (Q9Y271 1-337): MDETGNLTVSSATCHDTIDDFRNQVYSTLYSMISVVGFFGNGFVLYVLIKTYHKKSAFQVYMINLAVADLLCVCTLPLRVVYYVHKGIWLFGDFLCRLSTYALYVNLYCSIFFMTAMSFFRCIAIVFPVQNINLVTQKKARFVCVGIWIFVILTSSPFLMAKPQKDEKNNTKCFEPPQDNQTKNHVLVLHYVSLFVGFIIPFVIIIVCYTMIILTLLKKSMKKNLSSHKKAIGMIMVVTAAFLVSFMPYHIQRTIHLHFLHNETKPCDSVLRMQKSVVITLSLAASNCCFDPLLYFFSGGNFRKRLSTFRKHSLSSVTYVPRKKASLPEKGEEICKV
Briefly: Antagonism of LTD4-induced increase in intracellular calcium within a CysLT1 receptor expressing cell line (FLIPR). The class given is cell-based. Particulars: AV12-664 cells expressing human CysLT1; 6 nM LTD4; read-out: antagonism of CysLT1 receptors, IC50. From the text: Antagonism of Cysteinyl-leukotriene D4 (LTD4)—Induced Increase in Intracellular Calcium within a Cysteinyl-Leukotriene 1 (CysLT1) Receptor Expressing Cell Line
Confluent cultures are passaged weekly. Intracellular calcium levels are monitored in the CysLT1-expressing cells with the addition of LTD4, with or without prior exposure to the compounds being tested as antagonists with a Fluorometric Imaging Plate Reader (FLIPR, Molecular Devices). The following buffer is used throughout as an assay buffer: Hanks Buffered Saline Solution without phenol red (GIBCO), with 10 mM HEPES pH 7.4. Cells that had been plated 48 hours prior at a density of 20-25,000 cells per well in a 96-well plate are loaded with a calcium-sensitive dye for 90 minutes at 25° C. Fluo-3 (2 mM in DMSO, Molecular Probes) is mixed with an equal volume of 10% pluronic acid in DMSO, and diluted to 8 μM in the buffer described above containing 10% fetal bovine serum to make the loading buffer. Following loading of the cells, the buffer is removed and replaced with assay buffer prior to drug addition and monitoring on the FLIPR for several minutes. […] Least squares curve fitting with a four-parameter equation is applied to the resulting dose-% inhibition curve to determine the resulting IC50 values.
(In general: A change in cytosolic calcium serves as a functional read-out for many receptors and channels.)
Regarding `CCCc1c(OCc2cccc(S(=O)(=O)Nc3cccc(-c4nn[nH]n4)c3)c2)ccc(C(C)=O)c1O` [Example 12, 3-(4-Acetyl-3-hydroxy-2-propyl-phenoxymethyl)-N-[3-(2 H-tetrazol-5-yl)-phenyl]-benzene-sulfonamide], the 50% inhibitory concentration (IC50) was less than 0.5 µM.

For `CCCc1c(OCc2ccc(NC(=O)Nc3cccc(C(=O)O)c3)cc2)ccc(C(C)=O)c1O` [Example 1, 3-{3-[4-(4-acetyl-3-hydroxy-2-propyl-phenoxymethyl)-phenyl]-ureido}-benzoic acid], the IC50 is less than 0.5 µM.

Turning to `CCCc1c(OCc2cccc(S(=O)(=O)Nc3ccccc3-c3nn[nH]n3)c2)ccc(C(C)=O)c1O` [Example 13, 3-(4-Acetyl-3-hydroxy-2-propyl-phenoxymethyl)-N-[2-(2 H-tetrazol-5-yl)-phenyl]-benzene-sulfonamide], the half-maximal inhibitory concentration (IC50) was less than 0.5 µM.

Turning to `CCCc1c(OCc2ccc(S(=O)(=O)Nc3ccccc3-c3nn[nH]n3)cc2)ccc(C(C)=O)c1O` [Example 10, 4-(4-Acetyl-3-hydroxy-2-propyl-phenoxymethyl)-N-[2-(2 H-tetrazol-5-yl)-phenyl]-benzene-sulfonamide], the IC50 is less than 0.5 µM.

The term IC50 denotes the concentration at which inhibition is half-maximal.
